Measured values taken from PubChem BioAssay AID248 (DTP/NCI, 2004).
Several values for one entry are separate records, joined by “and”; a condition that tells them apart may be missing. Equal values may be shown once. Toxic doses and inconclusive results are not listed. Rule as the data show it: active = T/C of 150% or more; inactive = T/C below 125%.

Tested on: L1210 leukemia ip in BDF1 mice, survival T/C
Assay: NCI In Vivo Anticancer Drug Screen. Data for tumor model L1210 Leukemia (intraperitoneal) in B6D2F1 (BDF1) mice
Conditions: endpoint: mean survival time, higher = longer survival
Procedure, shortened: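 In this screen, tumor-bearing mice given compound are compared to those given vehicle, and their survival values are reported as a treated-to-control quotient.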

[1] = dose: 100.0 mg/kg/injection, schedule: Q04DX003 (ip), vehicle: saline
[2] = dose: 200.0 mg/kg/injection, schedule: Q04DX003 (ip), vehicle: saline
[3] = dose: 100.0 mg/kg/injection, schedule: Q01DX009 (ip), vehicle: Klucel (hydroxypropylcellulose) (HPC)
[4] = dose: 200.0 mg/kg/injection, schedule: Q01DX009 (ip), vehicle: Klucel (hydroxypropylcellulose) (HPC)
[5] = dose: 125.0 mg/kg/injection, schedule: Q01DX Z (ip), vehicle: water
[6] = dose: 100.0 mg/kg/injection, schedule: Q04DX002 (ip), vehicle: saline with Tween-80
[7] = dose: 200.0 mg/kg/injection, schedule: Q04DX002 (ip), vehicle: saline with Tween-80
[8] = dose: 400.0 mg/kg/injection, schedule: Q04DX002 (ip), vehicle: saline with Tween-80
[9] = dose: 100.0 mg/kg/injection, schedule: Q01DX001 (ip), vehicle: Klucel (hydroxypropylcellulose) (HPC)
[10] = dose: 200.0 mg/kg/injection, schedule: Q01DX001 (ip), vehicle: Klucel (hydroxypropylcellulose) (HPC)
[11] = dose: 400.0 mg/kg/injection, schedule: Q01DX001 (ip), vehicle: Klucel (hydroxypropylcellulose) (HPC)
[12] = dose: 100.0 mg/kg/injection, schedule: Q04DX003 (ip), vehicle: Klucel (hydroxypropylcellulose) (HPC)
[13] = dose: 200.0 mg/kg/injection, schedule: Q04DX003 (ip), vehicle: Klucel (hydroxypropylcellulose) (HPC)
[14] = dose: 400.0 mg/kg/injection, schedule: Q04DX003 (ip), vehicle: Klucel (hydroxypropylcellulose) (HPC)
[15] = dose: 100.0 mg/kg/injection, schedule: Q04DX002 (ip), vehicle: Klucel (hydroxypropylcellulose) (HPC)
[16] = dose: 200.0 mg/kg/injection, schedule: Q04DX002 (ip), vehicle: Klucel (hydroxypropylcellulose) (HPC)
[17] = dose: 400.0 mg/kg/injection, schedule: Q04DX002 (ip), vehicle: Klucel (hydroxypropylcellulose) (HPC)
[18] = dose: 100.0 mg/kg/injection, schedule: Q04DX003 (ip), vehicle: saline with Tween-80
[19] = dose: 200.0 mg/kg/injection, schedule: Q04DX003 (ip), vehicle: saline with Tween-80
[20] = dose: 400.0 mg/kg/injection, schedule: Q04DX003 (ip), vehicle: saline with Tween-80

Measured: T/C

CCCCNS(=O)(=O)c1ccc(Cl)c([N+](=O)[O-])c1
inactive: dose: 12.5 mg/kg/injection, schedule: Q04DX003 (ip), vehicle: Klucel (hydroxypropylcellulose) (HPC) 95 % of control | dose: 25.0 mg/kg/injection, schedule: Q04DX003 (ip), vehicle: Klucel (hydroxypropylcellulose) (HPC) 103 % of control | dose: 50.0 mg/kg/injection, schedule: Q04DX003 (ip), vehicle: Klucel (hydroxypropylcellulose) (HPC) 100 % of control | dose: 100.0 mg/kg/injection, schedule: Q04DX003 (ip), vehicle: gum acacia 103 % of control | dose: 200.0 mg/kg/injection, schedule: Q04DX003 (ip), vehicle: gum acacia 105 % of control

O=C(N/N=C/c1ccc([N+](=O)[O-])s1)c1ccccc1O
inactive: [1] 94 % of control | [2] 100 % of control | dose: 400.0 mg/kg/injection, schedule: Q04DX003 (ip), vehicle: saline 97 % of control

Cc1cc(Cl)c(OC(=O)Nc2ccccc2C(F)(F)F)cc1C
inactive: [3] 107 % of control | [4] 107 % of control | dose: 400.0 mg/kg/injection, schedule: Q01DX009 (ip), vehicle: Klucel (hydroxypropylcellulose) (HPC) 98 % of control

O=C(Nc1cccc(C2=NCCN2)c1)c1ccc2ccc(C(=O)Nc3cccc(C4=NCCN4)c3)cc2c1
inactive: dose: 15.0 mg/kg/injection, schedule: Q01DX Z (ip), vehicle: carboxymethylcellulose (CMC) 111 % of control | dose: 30.0 mg/kg/injection, schedule: Q01DX Z (ip), vehicle: carboxymethylcellulose (CMC) 102 % of control | dose: 60.0 mg/kg/injection, schedule: Q01DX Z (ip), vehicle: carboxymethylcellulose (CMC) 106 % of control | dose: 120.0 mg/kg/injection, schedule: Q01DX Z (ip), vehicle: carboxymethylcellulose (CMC) 113 % of control | [5] 118 % of control

NC(=O)COc1c(Cl)cc(Cl)cc1Cl
inactive: [6] 103 % of control | [7] 103 % of control | [8] 100 % of control

Clc1nc(Cl)nc(Cl)n1
inactive: dose: 100.0 mg/kg/injection, schedule: Q04DX002 (ip), vehicle: other 98 % of control | dose: 200.0 mg/kg/injection, schedule: Q04DX002 (ip), vehicle: other 95 % of control

CC(CCC(=O)O)(c1ccc(O)cc1)c1ccc(O)cc1
inactive: dose: 100.0 mg/kg/injection, schedule: Q04DX003 (ip), vehicle: other 99 % of control | dose: 200.0 mg/kg/injection, schedule: Q04DX003 (ip), vehicle: other 105 % of control | dose: 400.0 mg/kg/injection, schedule: Q04DX003 (ip), vehicle: other 97 % of control

CCOC(=O)CSC(=S)N1CCOCC1
inactive: [9] 94 % of control | [10] 97 % of control | [11] 102 % of control

CC(=O)Nc1ccc(OC(=S)N(C)C)cc1
inactive: [12] 96 % of control | [13] 97 % of control | [14] 101 % of control

O=C(CCl)Nc1cccc(S(=O)(=O)F)c1
inactive: dose: 12.5 mg/kg/injection, schedule: Q01DX009 (ip), vehicle: carboxymethylcellulose (CMC) 93 % of control | dose: 25.0 mg/kg/injection, schedule: Q01DX009 (ip), vehicle: carboxymethylcellulose (CMC) 88 % of control | dose: 50.0 mg/kg/injection, schedule: Q01DX009 (ip), vehicle: carboxymethylcellulose (CMC) 87 % of control | dose: 100.0 mg/kg/injection, schedule: Q04DX003 (ip), vehicle: carboxymethylcellulose (CMC) 103 % of control

S=C(Nc1ccc(Cl)cc1)Nc1ccc(-c2ccc(NC(=S)Nc3ccc(Cl)cc3)cc2)cc1
inactive: [15] 107 % of control | [16] 100 % of control | [17] 89 % of control

Cc1ccc([P+](Cc2ccccc2)(c2ccc(C)cc2)c2ccc(C)cc2)cc1
inactive: dose: 75.0 mg/kg/injection, schedule: Q01DX001 (ip), vehicle: saline 97 % of control | dose: 150.0 mg/kg/injection, schedule: Q01DX001 (ip), vehicle: saline 97 % of control

CN=C1N[N+]2=CCCCC2S1 (configuration not stated)
inactive: dose: 25.0 mg/kg/injection, schedule: Q04DX002 (ip), vehicle: saline 86 % of control | dose: 40.0 mg/kg/injection, schedule: Q01DX009 (ip), vehicle: saline 95 % of control | dose: 50.0 mg/kg/injection, schedule: Q04DX002 (ip), vehicle: saline 111 % of control | dose: 60.0 mg/kg/injection, schedule: Q01DX009 (ip), vehicle: saline 104 % of control | dose: 80.0 mg/kg/injection, schedule: Q01DX009 (ip), vehicle: saline 107 % of control | dose: 100.0 mg/kg/injection, schedule: Q04DX002 (ip), vehicle: saline 99 % of control

COc1ccc(NC(=S)N(C)C)cc1
inactive: dose: 100.0 mg/kg/injection, schedule: Q01DX009 (ip), vehicle: saline with Tween-80 98 % of control | dose: 200.0 mg/kg/injection, schedule: Q01DX009 (ip), vehicle: saline with Tween-80 110 % of control | dose: 400.0 mg/kg/injection, schedule: Q01DX009 (ip), vehicle: saline with Tween-80 98 % of control

CSC(N)=S
inactive: dose: 50.0 mg/kg/injection, schedule: Q01DX009 (ip), vehicle: saline 96 % of control | dose: 50.0 mg/kg/injection, schedule: Q04DX003 (ip), vehicle: saline 97 % of control | dose: 100.0 mg/kg/injection, schedule: Q01DX009 (ip), vehicle: saline 94 % of control | [1] 99 % of control | [2] 99 % of control

O=[N+]([O-])C=C([SH2+])[SH2+].O=[N+]([O-])C=C([SH2+])[SH2+].[Ni+2].c1ccc(C[P+](c2ccccc2)(c2ccccc2)c2ccccc2)cc1
inactive: dose: 75.0 mg/kg/injection, schedule: Q04DX003 (ip), vehicle: saline 101 % of control | dose: 150.0 mg/kg/injection, schedule: Q04DX003 (ip), vehicle: saline 101 % of control

COc1cc2cc3c4cc(OC)c(OC)cc4cc[n+]3c(/C=C/c3cc(OC)c(OC)c(OC)c3)c2cc1OC
inactive: [6] 96 % of control and 106 % of control | [18] 94 % of control | [7] 97 % of control and 104 % of control | [19] 96 % of control | [8] 104 % of control and 92 % of control | [20] 91 % of control

CC(C)(C)CC(C)(C)c1ccc(OCCOS(=O)(=O)c2cccc([N+](=O)[O-])c2)cc1
inactive: [18] 94 % of control | [19] 90 % of control

NC(=O)NC(CC(=O)O)C(=O)O (configuration not stated)
inactive: [18] 117 % of control | [19] 101 % of control | [20] 92 % of control

COC1(c2ccccc2)CN(Cc2ccccc2)CCO1 (configuration not stated)
inactive: [3] 95 % of control | [4] 98 % of control

COc1ccc(C(c2ccc(OC)cc2)c2cccc([N+](=O)[O-])c2)cc1
inactive: [18] 97 % of control | [19] 92 % of control

Cc1ccc(CS(=O)C(Cl)(Cl)c2ccc(C)cc2)cc1 (configuration not stated)
inactive: [15] 97 % of control | [16] 94 % of control | [17] 97 % of control

CCCCCCCCCCCCCCCC(=O)Nc1cccc2cnccc12
inactive: [12] 100 % of control | [13] 97 % of control | [14] 105 % of control

CN(C)C1c2cc(Cl)ccc2-c2c(N)cc(Cl)cc21 (configuration not stated)
inactive: dose: 50.0 mg/kg/injection, schedule: Q01DX001 (ip), vehicle: carboxymethylcellulose (CMC) 95 % of control | dose: 100.0 mg/kg/injection, schedule: Q01DX001 (ip), vehicle: carboxymethylcellulose (CMC) 98 % of control | dose: 200.0 mg/kg/injection, schedule: Q01DX001 (ip), vehicle: carboxymethylcellulose (CMC) 98 % of control | dose: 400.0 mg/kg/injection, schedule: Q01DX001 (ip), vehicle: carboxymethylcellulose (CMC) 93 % of control

CCCCCCCCCCCCCCCCN(C(=S)NC(=O)c1ccccc1)c1ccccc1
inactive: [9] 96 % of control | [12] 97 % of control | [10] 86 % of control | [13] 89 % of control | [11] 92 % of control | [14] 95 % of control

CC(=O)OC1CCC2C3CCc4cc(OC(=S)N(C)C)ccc4C3CCC12C (configuration not stated)
inactive: [18] 101 % of control | [19] 101 % of control | [20] 110 % of control

CCOC(=O)C(Cc1ccccc1)NC(=O)N(CCCl)CCCl (configuration not stated)
inactive: dose: 62.5 mg/kg/injection, schedule: Q01DX Z (ip), vehicle: water 97 % of control | [5] 95 % of control | dose: 250.0 mg/kg/injection, schedule: Q01DX Z (ip), vehicle: water 106 % of control
